Tested on: Rattus norvegicus
[1] = short-term, duration: 28 days, oral, gavage, M, Sprague-Dawley, Liver: Liver Weight, Relative
[2] = developmental, duration: 24 days, oral, gavage, M/F, Sprague-Dawley, generation: F1, F1: Whole Body: Pup Weight per Litter, PND1
[3] = reproduction developmental, duration: 24 days, oral, gavage, F, Sprague-Dawley, generation: P0, P0: Whole Body: Clinical Signs
[4] = reproduction developmental, duration: 24 days, oral, gavage, F, Sprague-Dawley, generation: P0, P0: Whole Body: Feed Consumption, Absolute + P0: Whole Body: Maternal Body Weight Change + P0: Whole Body: Mortality + P0: Whole Body: No. …
[5] = short-term, duration: 28 days, oral, gavage, F, Wistar, Adrenal: Adrenal Gland Weight, Absolute + Adrenal: Adrenal Gland Weight, Relative + Kidney: Creatinine (CREAT) + Multi-Organ: Calcium (CA)
[6] = short-term, duration: 28 days, oral, gavage, M, Wistar, Blood: Hematocrit (HCT) + Blood: Hemoglobin (HGB) + Kidney: Urea + Liver: Alkaline Phosphatase (ALP) + Liver: Liver, Enlarged + Multi-Organ…
[7] = short-term, duration: 28 days, oral, gavage, M, Wistar, Liver: Liver Weight, Absolute + Multi-Organ: Glucose (GLU) + Multi-Organ: Potassium (K)
[8] = subchronic, duration: 90 days, oral, gavage, F, Sprague-Dawley, Kidney: Calcium (CA) Excretion + Multi-Organ: White Blood Cell (WBC)
[9] = subchronic, duration: 90 days, oral, gavage, M, Sprague-Dawley, Blood: Hematocrit (HCT) + Blood: Hemoglobin (HGB)
[10] = subchronic, duration: 90 days, oral, gavage, M, Sprague-Dawley, Blood: Red Blood Cell (RBC) + Liver: Aspartate Aminotransferase (AST) + Multi-Organ: Prothrombin Time (PT)

FC(F)C(F)(F)C(F)(F)C(F)(F)C(F)(F)C(F)(F)F [1H-Perfluorohexane]
NOAEL (developmental, duration: 20 days, parental, M/F, Wistar, generation: F1, F1: Thyroid: Thyroxine (T4) + F1: Trunk: Anogenital Distance + F1: Whole Body: Body Weight, Fetal + F1: Whole Body: Clinical Observations + …): 1000 mg/kg-day
NOAEL (reproduction developmental, duration: 20 days, parental, M, Wistar, generation: F1, F1: Trunk: Areola/Nipple Retention): 1000 mg/kg-day
NOAEL (reproduction developmental, duration: 29 days, oral, gavage, M, Wistar, generation: P0, P0: Epididymis: Epididymis Weight, Absolute + P0: Prostate: Prostate Weight, Absolute + P0: Seminal Vesicle: Seminal Vesicles Weight (w/o …): 1000 mg/kg-day
NOAEL (reproduction developmental, duration: 29 days, oral, gavage, M, Wistar, generation: P0, P0: Peripheral Nervous System: Functional Observational Battery Tests + P0: Thyroid: Thyroid Gland Weight, Absolute + P0: Thyroid: Thyroxine…): 1000 mg/kg-day
NOAEL (reproduction developmental, duration: 64 days, oral, gavage, F, Wistar, generation: P0, P0: Heart: Heart Gross Pathology + P0: Heart: Heart Histopathology + P0: Kidney: Kidney Gross Pathology + P0: Kidney: Kidney Histopathology…): 1000 mg/kg-day
NOAEL (reproduction developmental, duration: 64 days, oral, gavage, F, Wistar, generation: P0, P0: Testis: Ovary Histopathology + P0: Uterus: Estrous Cyclicity + P0: Uterus: Implantation + P0: Whole Body: Conception Index + P0: Whole …): 1000 mg/kg-day
NOAEL (short-term, duration: 28 days, oral, gavage, F, Sprague-Dawley, Adrenal: Adrenal Gland Histopathology + Adrenal: Adrenal Gland Weight, Relative + Blood: Hematology, Unspecified + Brain: Brain Weight, …): 1000 mg/kg-day
NOAEL (short-term, duration: 28 days, oral, gavage, M, Sprague-Dawley, Adrenal: Adrenal Gland Histopathology + Adrenal: Adrenal Gland Weight + Blood: Hematology, Unspecified + Brain: Brain Weight, Relative + …): 1000 mg/kg-day
LOAEL [1]: 1000 mg/kg-day
NOAEL [1]: 200 mg/kg-day

O=C([O-])C(F)(F)C(F)OC(F)(F)C(F)(F)C(F)(F)OC(F)(F)F.[NH4+] (configuration not stated) [Ammonium 4,8-dioxa-3H-perfluorononanoate]
NOAEL (developmental, duration: 24 days, oral, gavage, M/F, Sprague-Dawley, generation: F1, F1: Whole Body: Dams with Stillborn Pups + F1: Whole Body: Delivered Litters + F1: Whole Body: Live Pups Born + F1: Whole Body: Mean Pups …): 270 mg/kg-day
LOAEL (developmental, duration: 24 days, oral, gavage, M/F, Sprague-Dawley, generation: F1, F1: Whole Body: No Milk in Stomach + F1: Whole Body: Pup Weight per Litter, PND4 + F1: Whole Body: Pup Weight per Litter, PND6 + F1: Whole …): 270 mg/kg-day
LOAEL [2]: 90 mg/kg-day
NOAEL [2]: 30 mg/kg-day
NOAEL (developmental, duration: 24 days, oral, gavage, M/F, Sprague-Dawley, generation: F1, F1: Whole Body: Pup Weight per Litter, PND4 + F1: Whole Body: Pup Weight per Litter, PND6 + F1: Whole Body: Survival, PND1 + F1: Whole Body…): 90 mg/kg-day
NOAEL (reproduction developmental, duration: 24 days, oral, gavage, F, Sprague-Dawley, generation: P0, P0: Uterus: Resorptions, Early + P0: Whole Body: Feed Consumption, Absolute + P0: Whole Body: Length of Gestation + P0: Whole Body: Length …): 270 mg/kg-day
LOAEL [3]: 90 mg/kg-day
NOAEL [3]: 30 mg/kg-day
LOAEL [4]: 270 mg/kg-day
NOAEL [4]: 90 mg/kg-day
LOAEL [5]: 100 mg/kg-day
NOAEL [5]: 30 mg/kg-day
NOAEL (short-term, duration: 28 days, oral, gavage, F, Wistar, Blood: Activated Partial Thromboplastin Time (APTT) + Blood: Albumin/Globulin (A/G) Ratio + Blood: Hematocrit (HCT) + Blood: Hemoglobin (HGB…): 100 mg/kg-day
NOAEL (short-term, duration: 28 days, oral, gavage, M, Wistar, Adrenal: Adrenal Gland Weight, Absolute + Adrenal: Adrenal Gland Weight, Relative + Blood: Activated Partial Thromboplastin Time (APTT) + …): 100 mg/kg-day
LOAEL [6]: 100 mg/kg-day
NOAEL [6]: 30 mg/kg-day
LOAEL (short-term, duration: 28 days, oral, gavage, M, Wistar, Liver: Hepatocellular Hypertrophy + Liver: Liver Weight, Relative + Liver: Total Bilirubin (TBILI)): 10 mg/kg-day
LOAEL [7]: 30 mg/kg-day
NOAEL [7]: 10 mg/kg-day
NOAEL (subchronic, duration: 90 days, oral, gavage, F, Sprague-Dawley, Adrenal: Adrenal Gland Weight, Absolute + Adrenal: Adrenal Gland Weight, Relative + Blood: Activated Partial Thromboplastin Time (APTT) + …): 100 mg/kg-day
LOAEL [8]: 100 mg/kg-day
NOAEL [8]: 30 mg/kg-day
NOAEL (subchronic, duration: 90 days, oral, gavage, M, Sprague-Dawley, Adrenal: Adrenal Gland Weight, Absolute + Adrenal: Adrenal Gland Weight, Relative + Blood: Activated Partial Thromboplastin Time (APTT) + …): 10 mg/kg-day
LOAEL [9]: 3 mg/kg-day
NOAEL [9]: 1 mg/kg-day
LOAEL [10]: 10 mg/kg-day
NOAEL [10]: 3 mg/kg-day

Reference: EPA's ToxValDB 9.5
